Laboratory results taken from PubChem BioAssay AID1745844 (Carcinogenic Potency Database (CPDB), 2022).

Test system: rodent lifetime carcinogenesis bioassay, tumor incidence TD50
Assay: carcinogenic potency in animals, long-term in vivo studies, CPDB compilation (AID 1745844)
Conditions: rat, strain Fischer 344, in feed

Work on `Nc1c(Br)cc(Br)c2c1C(=O)c1ccccc1C2=O` yielded a TD50 (females, site: liver, lesion: hepatocholangiocarcinoma, dosed 103 weeks, study length 104 weeks) of 566 mg/kg/day, a TD50 (females, site: rectum, lesion: adenocarcinoma, dosed 103 weeks, study length 104 weeks) of 420 mg/kg/day and a TD50 (females, site: rectum, lesion: polypoid adenoma, dosed 40 weeks, study length 66 weeks) of 217 mg/kg/day. It also gave a TD50 (females, site: rectum, lesion: polypoid adenoma, dosed 103 weeks, study length 104 weeks) of 74 mg/kg/day, a TD50 (females, site: skin, lesion: squamous-cell papilloma, dosed 103 weeks, study length 104 weeks) of 2600 mg/kg/day and a TD50 (females, site: urinary bladder, lesion: transitional-cell carcinoma + transitional-cell papilloma + transitional epithelium, squamous-cell carcinoma + transitional ep, dosed 66 weeks, study length 66 weeks) of 2190 mg/kg/day. For the same molecule, the TD50 (females, site: urinary bladder, lesion: transitional-cell carcinoma + transitional-cell papilloma + transitional epithelium, squamous-cell carcinoma + transitional ep, dosed 103 weeks, study length 104 weeks) was 304 mg/kg/day, the TD50 (females, site: urinary bladder, lesion: transitional-cell carcinoma, dosed 66 weeks, study length 66 weeks) was 4830 mg/kg/day and the TD50 (females, site: urinary bladder, lesion: transitional-cell carcinoma, dosed 103 weeks, study length 104 weeks) was 656 mg/kg/day. For the same molecule, the TD50 (females, site: urinary bladder, lesion: transitional-cell papilloma, dosed 103 weeks, study length 104 weeks) was 782 mg/kg/day, the TD50 (males, site: any site (literature study), lesion: several types, types named in the paper, dosed 39 weeks, study length 66 weeks) was 123 mg/kg/day and the TD50 (males, site: any site (literature study), lesion: several types, types named in the paper, dosed 66 weeks, study length 66 weeks) was 193 mg/kg/day. The TD50 (males, site: any site (literature study), lesion: several types, types named in the paper, dosed 103 weeks, study length 104 weeks) was 130 mg/kg/day, the TD50 (males, site: colon + kidney + liver + rectum + urinary bladder, lesion: adenocarcinoma + polypoid adenoma + tubule adenoma + tubule carcinoma + hepatocholangiocarcinoma + hepatocellular adenoma + hepatoce, dosed 103 weeks, study length 104 weeks) was 54.6 mg/kg/day and the TD50 (males, site: colon + rectum, lesion: adenocarcinoma, dosed 66 weeks, study length 66 weeks) was 1870 mg/kg/day. It also gave a TD50 (males, site: colon + rectum, lesion: adenocarcinoma, dosed 103 weeks, study length 104 weeks) of 320 mg/kg/day, a TD50 (males, site: colon + rectum, lesion: polypoid adenoma, dosed 39 weeks, study length 66 weeks) of 297 mg/kg/day and a TD50 (males, site: colon + rectum, lesion: polypoid adenoma, dosed 66 weeks, study length 66 weeks) of 426 mg/kg/day. The TD50 (males, site: colon + rectum, lesion: polypoid adenoma, dosed 103 weeks, study length 104 weeks) was 64.3 mg/kg/day, the TD50 (males, site: colon, lesion: adenocarcinoma, dosed 103 weeks, study length 104 weeks) was 2010 mg/kg/day and the TD50 (males, site: colon, lesion: polypoid adenoma, dosed 103 weeks, study length 104 weeks) was 1660 mg/kg/day. The TD50 (males, site: kidney, lesion: tubule adenoma + tubule carcinoma, dosed 39 weeks, study length 66 weeks) was 239 mg/kg/day, the TD50 (males, site: kidney, lesion: tubule adenoma + tubule carcinoma, dosed 66 weeks, study length 66 weeks) was 1770 mg/kg/day and the TD50 (males, site: kidney, lesion: tubule adenoma + tubule carcinoma, dosed 103 weeks, study length 104 weeks) was 264 mg/kg/day. The TD50 (males, site: kidney, lesion: tubule adenoma, dosed 39 weeks, study length 66 weeks) was 239 mg/kg/day, the TD50 (males, site: kidney, lesion: tubule adenoma, dosed 66 weeks, study length 66 weeks) was 1770 mg/kg/day and the TD50 (males, site: kidney, lesion: tubule adenoma, dosed 103 weeks, study length 104 weeks) was 292 mg/kg/day. The TD50 (males, site: liver, lesion: hepatocellular adenoma + hepatoblastoma + hepatocellular carcinoma, dosed 39 weeks, study length 66 weeks) was 70.3 mg/kg/day, the TD50 (males, site: liver, lesion: hepatocellular adenoma + hepatoblastoma + hepatocellular carcinoma, dosed 66 weeks, study length 66 weeks) was 102 mg/kg/day and the TD50 (males, site: liver, lesion: hepatocellular adenoma + hepatoblastoma + hepatocellular carcinoma, dosed 103 weeks, study length 104 weeks) was 53.8 mg/kg/day. For the same molecule, the TD50 (males, site: liver, lesion: hepatocellular adenoma + hepatocellular carcinoma, dosed 39 weeks, study length 66 weeks) was 70.3 mg/kg/day, the TD50 (males, site: liver, lesion: hepatocellular adenoma + hepatocellular carcinoma, dosed 66 weeks, study length 66 weeks) was 102 mg/kg/day and the TD50 (males, site: liver, lesion: hepatocellular adenoma + hepatocellular carcinoma, dosed 103 weeks, study length 104 weeks) was 53.8 mg/kg/day. It also gave a TD50 (males, site: liver, lesion: hepatocellular adenoma, dosed 39 weeks, study length 66 weeks) of 97.8 mg/kg/day, a TD50 (males, site: liver, lesion: hepatocellular adenoma, dosed 66 weeks, study length 66 weeks) of 386 mg/kg/day and a TD50 (males, site: liver, lesion: hepatocellular adenoma, dosed 103 weeks, study length 104 weeks) of 71.4 mg/kg/day. It also gave a TD50 (males, site: liver, lesion: hepatocellular carcinoma, dosed 39 weeks, study length 66 weeks) of 95.8 mg/kg/day, a TD50 (males, site: liver, lesion: hepatocellular carcinoma, dosed 66 weeks, study length 66 weeks) of 114 mg/kg/day and a TD50 (males, site: liver, lesion: hepatocellular carcinoma, dosed 103 weeks, study length 104 weeks) of 59.6 mg/kg/day. It also gave a TD50 (males, site: liver, lesion: hepatocholangiocarcinoma, dosed 39 weeks, study length 66 weeks) of 1240 mg/kg/day, a TD50 (males, site: liver, lesion: hepatocholangiocarcinoma, dosed 103 weeks, study length 104 weeks) of 1230 mg/kg/day and a TD50 (males, site: lung, lesion: alveolar/bronchiolar adenoma + alveolar/bronchiolar carcinoma, dosed 103 weeks, study length 104 weeks) of 794 mg/kg/day. For the same molecule, the TD50 (males, site: lung, lesion: alveolar/bronchiolar adenoma, dosed 103 weeks, study length 104 weeks) was 1290 mg/kg/day, the TD50 (males, site: rectum, lesion: adenocarcinoma, dosed 103 weeks, study length 104 weeks) was 363 mg/kg/day and the TD50 (males, site: rectum, lesion: polypoid adenoma, dosed 39 weeks, study length 66 weeks) was 297 mg/kg/day. The TD50 (males, site: rectum, lesion: polypoid adenoma, dosed 66 weeks, study length 66 weeks) was 426 mg/kg/day, the TD50 (males, site: rectum, lesion: polypoid adenoma, dosed 103 weeks, study length 104 weeks) was 64.3 mg/kg/day and the TD50 (males, site: testis, lesion: interstitial-cell adenoma, bilateral + interstitial-cell adenoma, dosed 103 weeks, study length 104 weeks) was 133 mg/kg/day. For the same molecule, the TD50 (males, site: urinary bladder, lesion: transitional-cell carcinoma + transitional-cell papilloma, dosed 66 weeks, study length 66 weeks) was 3640 mg/kg/day, the TD50 (males, site: urinary bladder, lesion: transitional-cell carcinoma + transitional-cell papilloma, dosed 103 weeks, study length 104 weeks) was 564 mg/kg/day and the TD50 (males, site: urinary bladder, lesion: transitional-cell carcinoma, dosed 66 weeks, study length 66 weeks) was 3640 mg/kg/day. For the same molecule, the TD50 (males, site: urinary bladder, lesion: transitional-cell carcinoma, dosed 103 weeks, study length 104 weeks) was 1790 mg/kg/day and the TD50 (males, site: urinary bladder, lesion: transitional-cell papilloma, dosed 103 weeks, study length 104 weeks) was 846 mg/kg/day.
